Source: PubChem BioAssay (NCI)
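These data come from cells grown in 96-well plates and exposed to compound for 48 hours at five concentrations. TGI marks complete inhibition of growth.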

Experiments:
Test in all cases: NCI-60 cell line screen, 48 h
[1] = system: NCI-H23 lung
[2] = system: SR leukemia
[3] = system: T-47D breast
[4] = system: BT-549 breast
[5] = system: U251 CNS
[6] = system: TK-10 renal
[7] = system: UO-31 renal
[8] = system: NCI/ADR-RES ovarian
[9] = system: HOP-92 NSCLC
[10] = system: MALME-3M melanoma
[11] = system: SK-OV-3 ovarian
[12] = system: 786-0 renal
[13] = system: COLO 205 colon
[14] = system: OVCAR-8 ovarian
[15] = system: SF-268 CNS
[16] = system: OVCAR-4 ovarian
[17] = system: K-562 leukemia
[18] = system: MDA-N
[19] = system: SF-295 CNS
[20] = system: LOX IMVI melanoma
[21] = system: A549 NSCLC
[22] = system: MCF7 breast
[23] = system: M14 melanoma
[24] = system: MDA-MB-231 breast
[25] = system: HL-60(TB) leukemia
[26] = system: SF-539 CNS
[27] = system: PC-3 prostate
[28] = system: HOP-62 NSCLC
[29] = system: RPMI-8226 leukemia
[30] = system: NCI-H522 lung
[31] = system: RXF 393 renal
[32] = system: NCI-H460 lung
[33] = system: SK-MEL-5 melanoma
[34] = system: UACC-62 melanoma
[35] = system: ACHN renal
[36] = system: SNB-19 CNS
[37] = system: HCT-15 colon
[38] = system: SK-MEL-2 melanoma
[39] = system: HCT-116 colon
[40] = system: SK-MEL-28 melanoma
[41] = system: UACC-257 melanoma
[42] = system: SN12C renal
[43] = system: KM12 colon
[44] = system: HS 578T breast
[45] = system: MOLT-4 leukemia
[46] = system: IGROV1 ovarian
[47] = system: CCRF-CEM leukemia
[48] = system: SNB-75 CNS
[49] = system: SW-620 colon
[50] = system: DU-145 prostate
[51] = system: OVCAR-5 ovarian
[52] = system: MDA-MB-435
[53] = system: HT29 colon
[54] = system: OVCAR-3 ovarian
[55] = system: CAKI-1 renal
[56] = system: EKVX NSCLC
[57] = system: A498 renal
[58] = system: NCI-H226 lung
[59] = system: HCC-2998 colon

Measured: TGI

Cc1ccc(S(=O)(=O)NC(=O)NC(CCCCN=C(N)N)C(=O)O)cc1 (stereo not drawn)
not listed: [51] | [52] | [53] | [54] | [55] | [56] | [57] | [58] | [59]
> 100 µM: all other assays above

COc1ccccc1N=Nc1c(O)c(S(=O)(=O)O)cc2cc(S(=O)(=O)O)ccc12
not listed: [22] | [25] | [26] | [32] | [59]
> 100 µM: all other assays above

Cn1c([C@H](C#N)C(=O)c2cc(O)ccc2[N+](=O)[O-])nc2ccccc21
not listed: [11] | [17] | [31] | [49] | [58]
> 100 µM: all other assays above

CN(C)c1ccc(/C=C/C(=O)N[C@@H]2C(=O)N3[C@@H]2SC(C)(C)[C@@H]3C(=O)O)cc1
not listed: [9] | [10] | [11] | [46]
> 100 µM: all other assays above
